Measurements as given in PubChem BioAssay (NCI).
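Briefly, cells in 96-well plates were exposed to five compound concentrations for 48 h, and endpoints were estimated by linear interpolation. TGI is the concentration that stops growth completely.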

What was measured:
Assay in all cases: NCI tumour cell line growth inhibition, 48 h
[1] = tested on: TK-10 renal
[2] = tested on: HL-60(TB) leukemia
[3] = tested on: NCI-H460 lung
[4] = tested on: EKVX NSCLC
[5] = tested on: BT-549 breast
[6] = tested on: U251 CNS
[7] = tested on: UACC-257 melanoma
[8] = tested on: K-562 leukemia
[9] = tested on: HOP-62 NSCLC
[10] = tested on: SK-MEL-5 melanoma
[11] = tested on: SNB-19 CNS
[12] = tested on: CAKI-1 renal
[13] = tested on: 786-0 renal
[14] = tested on: RXF 393 renal
[15] = tested on: CCRF-CEM leukemia
[16] = tested on: HCT-116 colon
[17] = tested on: MCF7 breast
[18] = tested on: KM12 colon
[19] = tested on: OVCAR-3 ovarian
[20] = tested on: MALME-3M melanoma
[21] = tested on: SW-620 colon
[22] = tested on: A498 renal
[23] = tested on: HT29 colon
[24] = tested on: UACC-62 melanoma
[25] = tested on: HOP-92 NSCLC
[26] = tested on: HS 578T breast
[27] = tested on: SN12C renal
[28] = tested on: NCI-H226 lung
[29] = tested on: A549 NSCLC
[30] = tested on: NCI/ADR-RES ovarian
[31] = tested on: SK-MEL-2 melanoma
[32] = tested on: SF-295 CNS
[33] = tested on: OVCAR-4 ovarian
[34] = tested on: SK-OV-3 ovarian
[35] = tested on: OVCAR-5 ovarian
[36] = tested on: SF-268 CNS
[37] = tested on: MDA-MB-231 breast
[38] = tested on: UO-31 renal
[39] = tested on: HCT-15 colon
[40] = tested on: T-47D breast
[41] = tested on: LOX IMVI melanoma
[42] = tested on: RPMI-8226 leukemia
[43] = tested on: MOLT-4 leukemia
[44] = tested on: PC-3 prostate
[45] = tested on: NCI-H522 lung
[46] = tested on: COLO 205 colon
[47] = tested on: SF-539 CNS
[48] = tested on: OVCAR-8 ovarian
[49] = tested on: ACHN renal
[50] = tested on: HCC-2998 colon
[51] = tested on: NCI-H23 lung
[52] = tested on: IGROV1 ovarian
[53] = tested on: DU-145 prostate
[54] = tested on: SNB-75 CNS
[55] = tested on: MDA-N
[56] = tested on: SR leukemia
[57] = tested on: SK-MEL-28 melanoma
[58] = tested on: M14 melanoma
[59] = tested on: MDA-MB-435

In the case of `COC1CC(C)([N+](=O)[O-])C(O)C(C)O1` (configuration not stated), the TGI [1] is reported as > 100 µM, the TGI [2] is reported as > 100 µM and the TGI [3] is reported as > 100 µM. The TGI [4] was > 100 µM, the TGI [5] was > 100 µM and the TGI [6] was > 100 µM. The TGI [7] was > 100 µM, the TGI [8] was > 100 µM and the TGI [9] was > 100 µM. The TGI [10] was > 100 µM, the TGI [11] was > 100 µM and the TGI [12] was > 100 µM. The TGI [13] was > 100 µM, the TGI [14] was > 100 µM and the TGI [15] was > 100 µM. For the same compound, the TGI [16] was > 100 µM, the TGI [17] was > 100 µM and the TGI [18] was > 100 µM. For the same compound, the TGI [19] was > 100 µM, the TGI [20] was > 100 µM and the TGI [21] was > 100 µM. The TGI [22] was > 100 µM, the TGI [23] was > 100 µM and the TGI [24] was > 100 µM. For the same compound, the TGI [25] was > 100 µM, the TGI [26] was > 100 µM and the TGI [27] was > 100 µM. The TGI [28] was > 100 µM, the TGI [29] was > 100 µM and the TGI [30] was > 100 µM. For the same compound, the TGI [31] was > 100 µM, the TGI [32] was > 100 µM and the TGI [33] was > 100 µM. For the same compound, the TGI [34] was > 100 µM, the TGI [35] was > 100 µM and the TGI [36] was > 100 µM. For the same compound, the TGI [37] was > 100 µM, the TGI [38] was > 100 µM and the TGI [39] was > 100 µM. For the same compound, the TGI [40] was > 100 µM, the TGI [41] was > 100 µM and the TGI [42] was > 100 µM. The TGI [43] was > 100 µM, the TGI [44] was > 100 µM and the TGI [45] was > 100 µM. For the same compound, the TGI [46] was > 100 µM, the TGI [47] was > 100 µM and the TGI [48] was > 100 µM. The TGI [49] was > 100 µM, the TGI [50] was > 100 µM and the TGI [51] was > 100 µM. For the same compound, the TGI [52] was > 100 µM, the TGI [53] was > 100 µM and the TGI [54] was > 100 µM. The TGI [55] was > 100 µM, the TGI [56] was > 100 µM and the TGI [57] was > 100 µM. For the same compound, the TGI [58] was > 100 µM and the TGI [59] was > 100 µM.

For `C[N+]1(CCC(=O)c2ccccc2)CCC2CCC(C2)C1` (configuration not stated), the TGI [1] was > 100 µM, the TGI [2] was > 100 µM and the TGI [3] was > 100 µM. For the same compound, the TGI [4] was > 100 µM, the TGI [5] was > 100 µM and the TGI [6] was > 100 µM. For the same compound, the TGI [7] was > 100 µM, the TGI [8] was > 100 µM and the TGI [9] was > 100 µM. For the same compound, the TGI [10] was > 100 µM, the TGI [11] was > 100 µM and the TGI [12] was > 100 µM. The TGI [13] was > 100 µM, the TGI [14] was > 100 µM and the TGI [15] was > 100 µM. For the same compound, the TGI [16] was > 100 µM, the TGI [17] was > 100 µM and the TGI [18] was > 100 µM. The TGI [19] was > 100 µM, the TGI [20] was > 100 µM and the TGI [21] was > 100 µM. The TGI [22] was > 100 µM, the TGI [23] was > 100 µM and the TGI [24] was > 100 µM. The TGI [25] was > 100 µM, the TGI [26] was > 100 µM and the TGI [27] was > 100 µM. For the same compound, the TGI [28] was > 100 µM, the TGI [29] was > 100 µM and the TGI [30] was > 100 µM. The TGI [31] was > 100 µM, the TGI [32] was > 100 µM and the TGI [33] was > 100 µM. For the same compound, the TGI [34] was > 100 µM, the TGI [35] was > 100 µM and the TGI [36] was > 100 µM. The TGI [37] was > 100 µM, the TGI [38] was > 100 µM and the TGI [39] was > 100 µM. The TGI [40] was > 100 µM, the TGI [41] was > 100 µM and the TGI [42] was > 100 µM. For the same compound, the TGI [43] was > 100 µM, the TGI [44] was > 100 µM and the TGI [45] was > 100 µM. For the same compound, the TGI [46] was > 100 µM, the TGI [47] was > 100 µM and the TGI [48] was > 100 µM. The TGI [49] was > 100 µM, the TGI [50] was > 100 µM and the TGI [51] was > 100 µM. The TGI [52] was > 100 µM, the TGI [53] was > 100 µM and the TGI [54] was > 100 µM. The TGI [55] was > 100 µM, the TGI [56] was > 100 µM and the TGI [57] was > 100 µM. The TGI [58] was > 100 µM and the TGI [59] was > 100 µM.

For `Cc1cc(S(=O)(=O)Nc2n[nH]c(Nc3ccc4ccccc4c3)n2)c(S)cc1Cl`, the TGI [1] was > 100 µM, the TGI [2] was > 100 µM and the TGI [3] was > 100 µM. For the same compound, the TGI [4] was > 100 µM, the TGI [5] was > 100 µM and the TGI [6] was > 100 µM. For the same compound, the TGI [7] was > 100 µM, the TGI [8] was > 100 µM and the TGI [9] was > 100 µM. The TGI [10] was > 100 µM, the TGI [11] was > 100 µM and the TGI [12] was 91 µM. For the same compound, the TGI [13] was > 100 µM, the TGI [14] was > 100 µM and the TGI [15] was > 100 µM. The TGI [16] was > 100 µM, the TGI [17] was > 100 µM and the TGI [18] was 95 µM. For the same compound, the TGI [19] was 51.7 µM, the TGI [20] was > 100 µM and the TGI [21] was > 100 µM. The TGI [22] was > 100 µM, the TGI [23] was > 100 µM and the TGI [24] was > 100 µM. For the same compound, the TGI [25] was > 100 µM, the TGI [26] was 69.9 µM and the TGI [27] was > 100 µM. The TGI [28] was > 100 µM, the TGI [29] was > 100 µM and the TGI [30] was > 100 µM. The TGI [31] was 73.7 µM, the TGI [32] was 76.9 µM and the TGI [33] was > 100 µM. The TGI [34] was > 100 µM, the TGI [35] was > 100 µM and the TGI [36] was > 100 µM. For the same compound, the TGI [37] was > 100 µM, the TGI [38] was > 100 µM and the TGI [39] was > 100 µM. For the same compound, the TGI [40] was > 100 µM, the TGI [41] was > 100 µM and the TGI [42] was > 100 µM. For the same compound, the TGI [43] was > 100 µM, the TGI [44] was > 100 µM and the TGI [45] was 84.2 µM. For the same compound, the TGI [46] was > 100 µM, the TGI [47] was 35.1 µM and the TGI [48] was > 100 µM. The TGI [49] was > 100 µM, the TGI [50] was > 100 µM and the TGI [51] was > 100 µM. The TGI [52] was > 100 µM, the TGI [53] was > 100 µM and the TGI [54] was > 100 µM. The TGI [55] was 39 µM, the TGI [56] was > 100 µM and the TGI [57] was > 100 µM. The TGI [58] was > 100 µM and the TGI [59] was 84.2 µM.
